From patent US20120263732A1, “CD40 ANTIBODY FORMULATION AND METHODS” (PFIZER INC., priority 2003, published 2012)

Legend:
breast tumor, BT 474 = test: Established BT 474 breast tumors: antibody and/or cisplatin; assay type: in vivo, human tumor in SCID-beige mice; conditions: single IP injection once tumors reached 200 mm^2; antibody 1 mg/kg, cisplatin 2.5 mg/kg; Day 84
Experimental: The therapeutic effects of an anti-CD40 antibody (21.4.1) in preventing the growth of human breast tumors alone and in the presence of cisplatin was examined.
SCID-beige mice were injected SC with the breast tumor, BT 474. The antibody (1 mg/kg, IP) and/or cisplatin (2.5 mg/kg, IP) were administered as a single injection once tumors reached a size of 200 mm^2. Tumor growth was measured on Day 84 after challenge.

B cell lymphoma Daudi = test: Mortality in systemic Daudi B cell lymphoma model; assay type: in vivo, human tumor in SCID-beige mice; conditions: Daudi IV; single IP injection; monitored for 58 days
Experimental: The ability of an anti-CD40 antibody according to the invention (21.4.1) to delay mortality in a CD40(+) systemic tumor model using a B cell lymphoma was assessed.
SCID-beige mice were injected IV with the B cell lymphoma Daudi (ATCC CCL-213). 21.4.1 was administered as a single injection (IP) at the time of tumor injection. Mortality was monitored for 58 days.

[1] = system: human breast tumor, BT 474; test: BT 474 breast tumor growth with human T cells and DC in SCID-beige mice; assay type: in vivo; conditions: in the presence of immune cells; single injection
Source text: SCID-beige mice were challenged with the human breast tumor, BT 474 (ATCC HTB-20), SC, together with human peripheral blood T cells and DC. Animals received a single dose of 21.4.1 (IP) at the time of tumor injection.

[2] = system: CD40(−) colon carcinoma, Lovo; test: CD40(−) Lovo colon carcinoma growth in SCID-beige mice; assay type: in vivo, human tumor in SCID-beige mice; conditions: immune cells present; compared with K562 results
Experimental: (§1) The effects of a CD40 antibody (21.4.1) on the growth of CD40(−) tumors (e.g., erythroleukemia and colon carcinoma) were examined. In particular, K562 tumors were chosen to assess the efficacy of 21.4.1 against a CD40(−) low immunogenic (class I and II negative) tumor.
(§2) SCID-beige mice were injected SC with the CD40(−) erythroleukemic tumor, K562 (ATCC CCL-243) alone or in the presence of human peripheral blood T cells and DCs. Animals received a single IP injection of 21.4.1 either at the time of tumor injection or 5 days later using various dose levels.
The amount of 21.4.1 to cause a 50% inhibition of tumor growth was 0.005 mg/kg corresponding to a Cmax serum concentration of 0.05 μg/mL. […] The results were identical when 21.4.1 was administered on Day 0 or Day +5 relative to tumor challenge. The growth of these CD40(−) tumors was not inhibited by 21.4.1 in the absence of immune cells.

[3] = system: CD40(+) Raji B cell lymphoma; test: CD40(+) Raji B cell lymphoma growth in SCID-beige mice; assay type: in vivo, human tumor in SCID-beige mice
Experimental: SCID-beige mice were injected subcutaneously with the CD40(+) Raji B cell lymphoma (ATCC CCL-86) (SC) followed by a single dose of 21.4.1 (IP) at the time of tumor injection. Some animals were also injected with human T cells and DC. Tumor growth was assessed on Day 21.

[4] = system: CD40(−) erythroleukemic tumor, K562; test: CD40(−) K562 erythroleukemic tumor growth in SCID-beige mice; assay type: in vivo, human tumor in SCID-beige mice; conditions: K562 with human T cells and DC; single IP injection; Day 21
Experimental: as §1, §2

Molecule | tumor growth, single agent (breast tumor, BT 474) | mortality induced by systemically administered tumor cell line (B cell lymphoma Daudi) | growth of BT 474 cells [1] | inhibition of Lovo colon carcinoma growth [2] | anti-tumor activity against CD40(+) tumors when immune cells were present ([3]; Raji) | amount to cause a 50% inhibition of tumor growth (IC50) ([3]; Raji in the absence of immune cells, single IP dose, Day 21) [mg/kg] | amount to cause a 50% inhibition of tumor growth (IC50) [4] [mg/kg]
N.N.[Cl][Pt][Cl] [cisplatin, cis-diaminedichloroplatinum, reference compound] | prevented tumor growth |  |  |  |  |  | 
3.1.1: human anti-CD40 antibody; amino acid sequences SEQ ID NOs:1-4; hybridoma deposit PTA-3600 | demonstrated | demonstrated | demonstrated | demonstrated | demonstrated |  | 
3.1.1H-A78T-V88A-V97A/3.1.1L-L4M-L83V: 3.1.1 variant with three heavy chain and two light chain substitutions; SEQ ID NOs:9, 2, 10, 4 |  |  |  |  |  | < 0.01 | < 0.01
